From patent US11524968B2, “Heterocyclic compound as a protein kinase inhibitor” (HK inno.N Corporation, priority 2017, dated 2022) come the findings set out here.

Each structure is given as a SMILES string. Where only a bound is given, the exact number is not on record here.

The target in this experiment is JAK1 (Homo sapiens (Human), UniProt P23458). The experiment can be described thus: Analysis of JAK1 activity inhibition ability (ADP-Glo Kinase Assay). The format is biochemical. The settings on record: JAK1 enzyme, ADP-Glo luminescence, ATP 250 uM, IRS-itide substrate, 30° C. 40 minutes; read-out: IC50. The essentials: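 ADP-Glo luminescence read-out of ADP production, with IC50 taken as the concentration halving JAK1 activity relative to control. Enzyme was incubated 40 min at 30 °C with compound, IRS-itide (40 ng/mL) and ATP (250 uM), concentrations as prepared in pH 7.5 Tris-HCl/MgCl2/BSA/DTT buffer.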
Chain of JAK1 (P23458 whole entry): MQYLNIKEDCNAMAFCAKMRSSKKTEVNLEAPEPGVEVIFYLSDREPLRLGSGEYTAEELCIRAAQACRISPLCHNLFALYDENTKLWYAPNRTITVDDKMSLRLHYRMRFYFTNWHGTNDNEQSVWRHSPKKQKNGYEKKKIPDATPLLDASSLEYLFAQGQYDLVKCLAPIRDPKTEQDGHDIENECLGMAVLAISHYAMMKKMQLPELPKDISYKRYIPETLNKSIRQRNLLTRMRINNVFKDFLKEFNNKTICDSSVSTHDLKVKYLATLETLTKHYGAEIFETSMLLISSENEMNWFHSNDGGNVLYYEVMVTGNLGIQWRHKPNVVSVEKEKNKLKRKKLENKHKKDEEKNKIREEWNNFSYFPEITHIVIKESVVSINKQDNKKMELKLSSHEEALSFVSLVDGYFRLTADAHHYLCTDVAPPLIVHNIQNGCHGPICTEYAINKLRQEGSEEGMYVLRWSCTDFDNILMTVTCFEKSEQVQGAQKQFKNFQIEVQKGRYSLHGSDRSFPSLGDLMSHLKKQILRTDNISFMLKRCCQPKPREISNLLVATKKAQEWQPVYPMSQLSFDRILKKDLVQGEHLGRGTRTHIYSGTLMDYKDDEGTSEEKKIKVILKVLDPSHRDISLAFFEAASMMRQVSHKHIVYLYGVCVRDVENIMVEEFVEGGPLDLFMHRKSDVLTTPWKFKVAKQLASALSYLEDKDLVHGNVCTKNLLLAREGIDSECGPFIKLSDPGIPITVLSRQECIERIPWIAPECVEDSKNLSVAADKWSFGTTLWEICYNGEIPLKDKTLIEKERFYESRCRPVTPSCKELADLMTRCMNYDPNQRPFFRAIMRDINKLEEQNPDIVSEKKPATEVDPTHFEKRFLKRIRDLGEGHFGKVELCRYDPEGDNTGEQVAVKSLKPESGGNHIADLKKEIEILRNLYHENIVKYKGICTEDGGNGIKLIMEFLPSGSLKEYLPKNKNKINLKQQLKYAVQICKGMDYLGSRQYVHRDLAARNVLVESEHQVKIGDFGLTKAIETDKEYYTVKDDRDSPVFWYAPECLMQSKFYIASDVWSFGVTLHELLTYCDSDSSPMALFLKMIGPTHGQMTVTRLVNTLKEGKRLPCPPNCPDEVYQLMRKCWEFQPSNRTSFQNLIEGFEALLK

Consider `CC1CN(C(=O)n2ccnc2)CC=C1c1cc(NC(=O)C2CC2)nc2[nH]ccc12` (stereo not shown) [Example 452, N-(4-(1-(1H-imidazole-1-carbonyl)-3-methyl-1,2,3,6-tetrahydropyridin-4-yl)-1H-pyrrolo[2,3-b]pyridin-6-yl)cyclopropanecarboxamide], for which the IC50 was below 0.02 µM.

For the molecule `CC1CN(C(=O)NCC(F)(F)F)CC=C1c1cc(NC(=O)C2CC2)nc2[nH]ccc12` (stereo not shown) [Example 453, 4-(6-(cyclopropanecarboxamido)-1H-pyrrolo[2,3-b]pyridin-4-yl)-3-methyl-N-(2,2,2-trifluoroethyl)-3,6-dihydropyridine-1 (2H)-carboxamide], the IC50 is below 0.02 µM.

`CC(C)(C)OC(=O)N1CC=C(c2cc(NC(=O)C3CC3)nc3[nH]ccc23)CC1` [Example 454, tert-butyl 4-(6-(cyclopropanecarboxamido)-1H-pyrrolo[2,3-b]pyridin-4-yl)-3,6-dihydropyridine-1 (2H)-carboxylate]: the IC50 was in the range of 0.02 to 0.2 µM.

On to `N#CCOC(=O)N1CC=C(c2cc(NC(=O)C3CC3)nc3[nH]ccc23)CC1` [Example 455, cyanomethyl 4-(6-(cyclopropanecarboxamido)-1H-pyrrolo[2,3-b]pyridin-4-yl)-3,6-dihydropyridine-1 (2H)-carboxylate], for which the concentration for half-maximal inhibition (IC50) was below 0.02 µM.

As for `CC1CN(C(=O)OC(C)(C)C)CC=C1c1cc(NC(=O)C2CC2)nc2[nH]ccc12` (stereo not shown) [Example 456, tert-butyl 4-(6-(cyclopropanecarboxamido)-1H-pyrrolo[2,3-b]pyridin-4-yl)-3-methyl-3,6-dihydropyridine-1 (2H)-carboxylate], the IC50 is above 0.2 µM.

In the case of `Cc1c(NC(=O)C2CC2)nc2[nH]ccc2c1C1=CCN(C(=O)OC(C)(C)C)CC1` [Example 457, tert-butyl 4-(6-(cyclopropanecarboxamido)-5-methyl-1H-pyrrolo[2,3-b]pyridin-4-yl)-3,6-dihydropyridine-1 (2H)-carboxylate], the IC50 is above 0.2 µM.

As for `CCC1CN(C(=O)OC(C)(C)C)CC=C1c1cc(NC(=O)C2CC2)nc2[nH]ccc12` (stereo not shown) [Example 458, tert-butyl 4-(6-(cyclopropanecarboxamido)-1H-pyrrolo[2,3-b]pyridin-4-yl)-3-ethyl-3,6-dihydropyridine-1 (2H)-carboxylate], the IC50 is above 0.2 µM.

`CC(C)(C)OC(=O)N1C=C(c2cc(NC(=O)C3CC3)nc3[nH]ccc23)CCC1` [Example 459, tert-butyl 5-(6-(cyclopropanecarboxamido)-1H-pyrrolo[2,3-b]pyridin-4-yl)-3,4-dihydropyridine-1 (2H)-carboxylate]: the IC50 is above 0.2 µM.

As to `CC(C)(C)OC(=O)N1CCC=C(c2cc(NC(=O)C3CC3)nc3[nH]ccc23)C1` [Example 460, tert-butyl 5-(6-(cyclopropanecarboxamido)-1H-pyrrolo[2,3-b]pyridin-4-yl)-3,6-dihydropyridine-1 (2H)-carboxylate], the IC50 was above 0.2 µM.

Regarding `CC(C)(C)OC(=O)N1CC=C(c2cc(NC(=O)C3CC3)nc3[nH]ccc23)C1` [Example 461, tert-butyl 3-(6-(cyclopropanecarboxamido)-1H-pyrrolo[2,3-b]pyridin-4-yl)-2,5-dihydro-1H-pyrrole-1-carboxylate], the IC50 was above 0.2 µM.

With `CCNC(=S)Nc1ccc(-c2cc(NC(=O)C3CC3)nc3[nH]ccc23)cc1` [Example 462, N-(4-(4-(3-ethylthioureido)phenyl)-1H-pyrrolo[2,3-b]pyridin-6-yl)cyclopropanecarboxamide], the IC50 lay in the range of 0.02 to 0.2 µM.

Turning to `CCCCNC(=S)Nc1ccc(-c2cc(NC(=O)C3CC3)nc3[nH]ccc23)cc1` [Example 463, N-(4-(4-(3-butylthioureido)phenyl)-1H-pyrrolo[2,3-b]pyridin-6-yl)cyclopropanecarboxamide], the IC50 was above 0.2 µM.

Consider `O=C(Nc1nc(-c2ccc(NC(=S)NC3CCCCC3)cc2)c2cc[nH]c2n1)C1CC1` [Example 464, N-(4-(4-(3-cyclohexylthioureido)phenyl)-7H-pyrrolo[2,3-d]pyrimidin-2-yl)cyclopropanecarboxamide], for which the IC50 was above 0.2 µM.

`CCCCNC(=S)Nc1ccc(-c2nc(NC(=O)C3CC3)nc3[nH]ccc23)cc1` [Example 465, N-(4-(4-(3-butylthioureido)phenyl)-7H-pyrrolo[2,3-d]pyrimidin-2-yl)cyclopropanecarboxamide]: the IC50 was in the range of 0.02 to 0.2 µM.

For the molecule `CCNC(=S)Nc1ccc(-c2nc(NC(=O)C3CC3)nc3[nH]ccc23)cc1` [Example 466, N-(4-(4-(3-ethylthioureido)phenyl)-7H-pyrrolo[2,3-d]pyrimidin-2-yl)cyclopropanecarboxamide], the IC50 was in the range of 0.02 to 0.2 µM.

Consider `CCCNC(=S)Nc1ccc(-c2nc(NC(=O)C3CC3)nc3[nH]ccc23)cc1` [Example 467, N-(4-(4-(3-propylthioureido)phenyl)-7H-pyrrolo[2,3-d]pyrimidin-2-yl)cyclopropanecarboxamide], for which the IC50 is 0.02 to 0.2 µM.

As for `CCNC(=S)N1CC=C(c2cc(NC(=O)C3CC3)nc3[nH]ccc23)CC1` [Example 468, N-(4-(1-(ethylcarbamothioyl)-1,2,3,6-tetrahydropyridin-4-yl)-1H-pyrrolo[2,3-b]pyridin-6-yl)cyclopropanecarboxamide], the half-inhibitory concentration (IC50) lay within 0.02 to 0.2 µM.

On to `CCNC(=S)N1C2C=C(c3cc(NC(=O)C4CC4)nc4[nH]ccc34)CC1CC2` (stereo not shown) [Example 469, N-(4-(8-(ethylcarbamothioyl)-8-azabicyclo[3.2.1]oct-2-en-3-yl)-1H-pyrrolo[2,3-b]pyridin-6-yl)cyclopropanecarboxamide], for which the IC50 is below 0.02 µM.

With `O=C(Nc1cc(-c2ccc(NCC3CC3)cc2)c2cc[nH]c2n1)C1CC1` [Example 470, N-(4-(4-((cyclopropylmethyl)amino)phenyl)-1H-pyrrolo[2,3-b]pyridin-6-yl)cyclopropanecarboxamide], the half-inhibitory concentration (IC50) is 0.02 to 0.2 µM.

Regarding `O=C(Nc1cc(-c2ccc(NCC3CCCCC3)cc2)c2cc[nH]c2n1)C1CC1` [Example 471, N-(4-(4-((cyclohexylmethyl)amino)phenyl)-1H-pyrrolo[2,3-b]pyridin-6-yl)cyclopropanecarboxamide], the 50% inhibitory concentration (IC50) is above 0.2 µM.

`O=C(Nc1cc(-c2ccc(NCc3ccccc3)cc2)c2cc[nH]c2n1)C1CC1` [Example 472, N-(4-(4-(benzylamino)phenyl)-1H-pyrrolo[2,3-b]pyridin-6-yl)cyclopropanecarboxamide]: the half-inhibitory concentration (IC50) was above 0.2 µM.

With `O=C(Nc1nc(-c2ccc(NCc3ccc(F)cc3)cc2)c2cc[nH]c2n1)C1CC1` [Example 473, N-(4-(4-((4-fluorobenzyl)amino)phenyl)-7H-pyrrolo[2,3-d]pyrimidin-2-yl)cyclopropanecarboxamide], the IC50 was below 0.02 µM.

Turning to `O=C(Nc1nc(-c2ccc(NCc3cccc(F)c3)cc2)c2cc[nH]c2n1)C1CC1` [Example 474, N-(4-(4-((3-fluorobenzyl)amino)phenyl)-7H-pyrrolo[2,3-d]pyrimidin-2-yl)cyclopropanecarboxamide], the IC50 was below 0.02 µM.

As to `O=C(Nc1nc(-c2ccc(NCc3ccc(Cl)cc3)cc2)c2cc[nH]c2n1)C1CC1` [Example 475, N-(4-(4-((4-chlorobenzyl)amino)phenyl)-7H-pyrrolo[2,3-d]pyrimidin-2-yl)cyclopropanecarboxamide], the IC50 is below 0.02 µM.

As for `O=C(Nc1nc(-c2ccc(NCCCO)cc2)c2cc[nH]c2n1)C1CC1` [Example 476, N-(4-(4-((3-hydroxypropyl)amino)phenyl)-7H-pyrrolo[2,3-d]pyrimidin-2-yl)cyclopropanecarboxamide], the IC50 was above 0.2 µM.
